In patent US11685746B2, “Heteroaryl compounds for treating Huntington's disease” (PTC THERAPEUTICS, INC., priority 2018, dated 2023):
pIC50: −log10 of the molar value.

Tested on: Endogenous Huntingtin Protein
Experiment: Endogenous Huntingtin Protein Assay (MSD plates, MW1 or MAB2166 capture antibody)
Type: cell-based
Conditions: Table 1
Outline: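 Endogenous huntingtin was captured overnight at 4° C on wells coated with 1 μg/mL MW1 (polyglutamine-specific) or MAB2166. Detection used rabbit #5656S and then goat anti-rabbit SULFO-TAG, both at 0.25 μg/mL and 1 h at room temperature. Plates were imaged on the MSD system in read buffer T.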

Compound	pIC50
CN(c1nc2sc(-c3ncc(-c4ccnnc4)cc3O)nc2s1)C1CCNCC1 [Compound 225, 2-{5-[methyl(piperidin-4-yl)amino][1,3]thiazolo[5,4-d][1,3]thiazol-2-yl}-5-(pyridazin-4-yl)pyridin-3-ol]	≥ 7.00
CN(c1nc2sc(-c3cnc(-n4ccnc4)cn3)nc2s1)[C@H]1C[C@]2(C)CC[C@](C)(C1)N2 [Compound 103, N-[(1R,3s,5S)-1,5-dimethyl-8-azabicyclo[3.2.1]octan-3-yl]-5-[5-(1H-imidazol-1-yl)pyrazin-2-yl]-N-methyl[1,3]thiazolo[5,4-d][1,3]thiazol-2-amine]	≥ 7.00
CN(c1nc2sc(-c3ncc(-c4cn[nH]c4F)cc3O)nc2s1)C1CCNCC1 [Compound 53, 5-(5-fluoro-1H-pyrazol-4-yl)-2-{5-[methyl(piperidin-4-yl)amino][1,3]thiazolo[5,4-d][1,3]thiazol-2-yl}pyridin-3-ol]	≥ 7.00
CC(C)N1CCC(N(C)c2nc3sc(-c4ncc(-c5cn[nH]c5)cc4O)nc3s2)CC1 [Compound 205, 2-(5-{methyl[1-(propan-2-yl)piperidin-4-yl]amino}[1,3]thiazolo[5,4-d][1,3]thiazol-2-yl)-5-(1H-pyrazol-4-yl)pyridin-3-ol]	≥ 7.00
Oc1cc(-c2cn[nH]c2)cnc1-c1nc2sc(N3CCC34CCNCC4)nc2s1 [Compound 189, 2-[5-(1,7-diazaspiro[3.5]nonan-1-yl)[1,3]thiazolo[5,4-d][1,3]thiazol-2-yl]-5-(1H-pyrazol-4-yl)pyridin-3-ol]	6.30 to 7.00
CN(c1nc2sc(-c3cnc(-c4cnn(C)c4)cn3)nc2s1)[C@H]1C[C@]2(C)CC[C@](C)(C1)N2 [Compound 89, N-[(1R,3s,5S)-1,5-dimethyl-8-azabicyclo[3.2.1]octan-3-yl]-N-methyl-5-[5-(1-methyl-1H-pyrazol-4-yl)pyrazin-2-yl][1,3]thiazolo[5,4-d][1,3]thiazol-2-amine]	≥ 7.00
CN(c1nc2sc(-c3ncc(-c4cn[nH]c4)cc3O)nc2s1)C1CCN(C2CC2)CC1 [Compound 204, 2-{5-[(1-cyclopropylpiperidin-4-yl)(methyl)amino][1,3]thiazolo[5,4-d][1,3]thiazol-2-yl}-5-(1H-pyrazol-4-yl)pyridin-3-ol]	6.30 to 7.00
CCN1[C@@H]2CC[C@H]1C[C@H](N(C)c1nc3sc(-n4ccc(-c5cn[nH]c5)cc4=O)nc3s1)C2 [Compound 166, 1-(5-{[(1R,3s,5S)-8-ethyl-8-azabicyclo[3.2.1]octan-3-yl](methyl)amino}[1,3]thiazolo[5,4-d][1,3]thiazol-2-yl)-4-(1H-pyrazol-4-yl)pyridin-2(1H)-one]	≥ 7.00
CN(c1nc2sc(-n3cnc(-c4cn[nH]c4)cc3=O)nc2s1)[C@H]1C[C@]2(C)CC[C@](C)(C1)N2 [Compound 144, 3-(5-{[(1R,3s,5S)-1,5-dimethyl-8-azabicyclo[3.2.1]octan-3-yl](methyl)amino}[1,3]thiazolo[5,4-d][1,3]thiazol-2-yl)-6-(1H-pyrazol-4-yl)pyrimidin-4(3H)-one]	≥ 7.00
Cc1cn2nc(-c3nc4sc(C5CCNCC5)nc4s3)cc(C)c2n1 [Compound 12, 2,8-dimethyl-6-[5-(piperidin-4-yl)[1,3]thiazolo[5,4-d][1,3]thiazol-2-yl]imidazo[1,2-b]pyridazine]	6.30 to 7.00
CN(c1nc2sc(-c3ncc(-n4ccnc4)cc3O)nc2s1)C1CCNCC1 [Compound 60, 5-(1H-imidazol-1-yl)-2-{5-[methyl(piperidin-4-yl)amino][1,3]thiazolo[5,4-d][1,3]thiazol-2-yl}pyridin-3-ol]	5.52 to 6.00
CN(c1nc2sc(-n3cnc(-c4cn[nH]c4)cc3=O)nc2s1)C1CC(C)(C)NC(C)(C)C1 [Compound 140, 3-{5-[methyl(2,2,6,6-tetramethylpiperidin-4-yl)amino][1,3]thiazolo[5,4-d][1,3]thiazol-2-yl}-6-(1H-pyrazol-4-yl)pyrimidin-4(3H)-one]	≥ 7.00
CN(c1nc2sc(-n3ccc(Br)cc3=O)nc2s1)[C@@H]1C[C@H]2CC[C@@H](C1)N2 [Compound 171, 1-(5-{[(1R,3s,5S)-8-azabicyclo[3.2.1]octan-3-yl](methyl)amino}[1,3]thiazolo[5,4-d][1,3]thiazol-2-yl)-4-bromopyridin-2(1H)-one]	≥ 7.00
CC1CC(N(C)c2nc3sc(-c4ccc(-c5cn[nH]c5)nc4)nc3s2)CCN1C (stereo not shown) [Compound 127, N-(1,2-dimethylpiperidin-4-yl)-N-methyl-5-[6-(1H-pyrazol-4-yl)pyridin-3-yl][1,3]thiazolo[5,4-d][1,3]thiazol-2-amine]	5.52 to 6.00
CN(c1nc2sc(-c3ccc(-c4cn[nH]c4)c4cn[nH]c34)nc2s1)[C@H]1C[C@]2(C)CC[C@](C)(C1)N2 [Compound 110, N-[(1R,3s,5S)-1,5-dimethyl-8-azabicyclo[3.2.1]octan-3-yl]-N-methyl-5-[4-(1H-pyrazol-4-yl)-1H-indazol-7-yl][1,3]thiazolo[5,4-d][1,3]thiazol-2-amine]	≥ 7.00
CC1CC(N(C)c2nc3sc(-c4ccc(-n5nccn5)c5cc[nH]c45)nc3s2)CCN1C (stereo not shown) [Compound 118, N-(1,2-dimethylpiperidin-4-yl)-N-methyl-5-[4-(2H-1,2,3-triazol-2-yl)-1H-indol-7-yl][1,3]thiazolo[5,4-d][1,3]thiazol-2-amine]	6.00 to 6.30

Compound	pIC50
CN(c1nc2sc(-c3ncc(-c4cn[nH]c4)c4cc[nH]c34)nc2s1)C1CCNCC1 [Compound 139, N-methyl-N-(piperidin-4-yl)-5-[4-(1H-pyrazol-4-yl)-1H-pyrrolo[2,3-c]pyridin-7-yl][1,3]thiazolo[5,4-d][1,3]thiazol-2-amine]	≥ 7.00
CN(c1nc2sc(-n3cnc(-c4cn[nH]c4)c3)nc2s1)[C@@H]1C[C@H]2CC[C@@H](C1)N2 [Compound 170, N-[(1R,3s,5S)-8-azabicyclo[3.2.1]octan-3-yl]-N-methyl-5-[4-(1H-pyrazol-4-yl)-1H-imidazol-1-yl][1,3]thiazolo[5,4-d][1,3]thiazol-2-amine]	6.30 to 7.00
Cc1cn2cc(-c3nc4sc(C5CCNCC5)nc4s3)nc2c(C)n1 [Compound 44, 6,8-dimethyl-2-[5-(piperidin-4-yl)[1,3]thiazolo[5,4-d][1,3]thiazol-2-yl]imidazo[1,2-a]pyrazine]	5.52 to 6.00
CN(c1nc2sc(-c3ccc(-c4cn[nH]c4)nn3)nc2s1)[C@@H]1C[C@H]2CC[C@@H](C1)N2 [Compound 168, N-[(1R,3s,5S)-8-azabicyclo[3.2.1]octan-3-yl]-N-methyl-5-[6-(1H-pyrazol-4-yl)pyridazin-3-yl][1,3]thiazolo[5,4-d][1,3]thiazol-2-amine]	≥ 7.00
CN(c1nc2sc(-c3ncc(-c4cn[nH]c4)cc3O)nc2s1)[C@@H]1CCNC1 [Compound 56, 2-(5-{methyl[(3R)-pyrrolidin-3-yl]amino}[1,3]thiazolo[5,4-d][1,3]thiazol-2-yl)-5-(1H-pyrazol-4-yl)pyridin-3-ol]	≥ 7.00
C[C@H]1C[C@@H](N(C)c2nc3sc(-c4cnc(-c5cn[nH]c5)cn4)nc3s2)CCN1 [Compound 99, N-methyl-N-[(2S,4S)-2-methylpiperidin-4-yl]-5-[5-(1H-pyrazol-4-yl)pyrazin-2-yl][1,3]thiazolo[5,4-d][1,3]thiazol-2-amine]	6.00 to 6.30
CN(c1nc2sc(-c3ncc(-c4cn[nH]c4)nn3)nc2s1)[C@H]1C[C@]2(C)CC[C@](C)(C1)N2 [Compound 79, N-[(1R,3s,5S)-1,5-dimethyl-8-azabicyclo[3.2.1]octan-3-yl]-N-methyl-5-[6-(1H-pyrazol-4-yl)-1,2,4-triazin-3-yl][1,3]thiazolo[5,4-d][1,3]thiazol-2-amine]	≥ 7.00
C[C@H]1C[C@H](N(C)c2nc3sc(-c4ncc(-n5ccnc5)c5cc[nH]c45)nc3s2)CCN1 [Compound 80, 5-[4-(1H-imidazol-1-yl)-1H-pyrrolo[2,3-c]pyridin-7-yl]-N-methyl-H-[(2S,4R)-2-methylpiperidin-4-yl][1,3]thiazolo[5,4-d][1,3]thiazol-2-amine]	≥ 7.00
Cn1cc2cc(-c3cn4nc(C5CCNCC5)sc4n3)cc(C#N)c2n1 [Compound 32, 2-methyl-5-[2-(piperidin-4-yl)imidazo[2,1-b][1,3,4]thiadiazol-6-yl]-2H-indazole-7-carbonitrile]	6.30 to 7.00
CN(c1nc2sc(-c3cnc(-n4ccnc4)cn3)nc2s1)C1CC(C)(C)NC(C)(C)C1 [Compound 102, 5-[5-(1H-imidazol-1-yl)pyrazin-2-yl]-N-methyl-N-(2,2,6,6-tetramethylpiperidin-4-yl)[1,3]thiazolo[5,4-d][1,3]thiazol-2-amine]	≥ 7.00
CN(c1nc2sc(-c3ccc(-c4cn[nH]c4)nn3)nc2s1)C1CC(C)(C)NC(C)(C)C1 [Compound 167, N-methyl-5-[6-(1H-pyrazol-4-yl)pyridazin-3-yl]-N-(2,2,6,6-tetramethylpiperidin-4-yl)[1,3]thiazolo[5,4-d][1,3]thiazol-2-amine]	6.30 to 7.00
CC1CC(N(C)c2nc3sc(-c4ccc(-c5cn[nH]c5)c5nc[nH]c45)nc3s2)CCN1C (stereo not shown) [Compound 112, N-(1,2-dimethylpiperidin-4-yl)-N-methyl-5-[4-(1H-pyrazol-4-yl)-1H-benzimidazol-7-yl][1,3]thiazolo[5,4-d][1,3]thiazol-2-amine]	≥ 7.00
CN(c1nc2sc(-c3ncc(Br)n4ccnc34)nc2s1)C1CCNCC1 [Compound 117, 5-(5-bromoimidazo[1,2-a]pyrazin-8-yl)-N-methyl-N-(piperidin-4-yl)[1,3]thiazolo[5,4-d][1,3]thiazol-2-amine]	5.52 to 6.00
CN(c1nc2sc(-c3cnc(-c4cn[nH]c4)cn3)nc2s1)C1CC(C)(C)NC(C)(C)C1 [Compound 163, N-methyl-5-[5-(1H-pyrazol-4-yl)pyrazin-2-yl]-N-(2,2,6,6-tetramethylpiperidin-4-yl)[1,3]thiazolo[5,4-d][1,3]thiazol-2-amine]	≥ 7.00
CN(c1nc2sc(-n3ccc(-c4cn[nH]c4)cc3=O)nc2s1)[C@H]1C[C@]2(C)CC[C@](C)(C1)N2 [Compound 146, 1-(5-{[(1R,3s,5S)-1,5-dimethyl-8-azabicyclo[3.2.1]octan-3-yl](methyl)amino}[1,3]thiazolo[5,4-d][1,3]thiazol-2-yl)-4-(1H-pyrazol-4-yl)pyridin-2(1H)-one]	≥ 7.00
